{
  "source": "patent US12692254B2",
  "about": "“Benzimidazole inhibitors of PAD enzymes” (BRISTOL-MYERS SQUIBB COMPANY, priority 2018, dated 2026)",
  "data": [
    {"molecular_target": "human PAD4 (hPAD4) (Homo sapiens, UniProt Q9UM07)", "sequence (Q9UM07 whole entry)": "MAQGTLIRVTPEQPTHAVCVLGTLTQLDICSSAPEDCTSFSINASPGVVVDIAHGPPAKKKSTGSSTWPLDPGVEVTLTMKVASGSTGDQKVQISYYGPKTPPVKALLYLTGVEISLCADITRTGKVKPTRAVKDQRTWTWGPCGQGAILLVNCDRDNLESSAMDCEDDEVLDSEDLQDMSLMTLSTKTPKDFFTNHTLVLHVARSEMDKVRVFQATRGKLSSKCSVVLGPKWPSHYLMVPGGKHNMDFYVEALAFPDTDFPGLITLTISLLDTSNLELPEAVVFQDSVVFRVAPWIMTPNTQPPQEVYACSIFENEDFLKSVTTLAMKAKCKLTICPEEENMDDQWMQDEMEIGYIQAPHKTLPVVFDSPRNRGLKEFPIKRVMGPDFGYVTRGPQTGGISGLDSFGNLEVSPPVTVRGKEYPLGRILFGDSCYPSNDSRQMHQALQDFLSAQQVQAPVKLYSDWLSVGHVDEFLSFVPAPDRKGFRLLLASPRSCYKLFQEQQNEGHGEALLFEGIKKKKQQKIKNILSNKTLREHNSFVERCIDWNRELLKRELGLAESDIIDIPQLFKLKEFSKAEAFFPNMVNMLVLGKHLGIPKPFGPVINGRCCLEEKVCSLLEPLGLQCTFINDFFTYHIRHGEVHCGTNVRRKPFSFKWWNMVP", "assay": "RFMS human PAD4 functional assay (rapid-fire mass spectrum)", "type": "biochemical", "conditions": "5 nM hPAD4 enzyme, 250 μM BAEE, 50 μM Calcium; 30 min preincubation, 90 min reaction at 37° C.", "procedure,_shortened": "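PAD4 (10 nM) preincubated 30 min with compound (top final 50 μM), then BAEE substrate added in pH 7.5 HEPES buffer with DTT, 50 μM calcium, TPEN; 90 min at 37° C. After TCA quench, citrulline derivatized with phenyl glyoxal (4 mM final, 30 min, 37° C) and quantified by RapidFire MS against internal standard.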", "units": {"IC50": "nM"}, "values": [
      {"compound": "N[C@@H]1[C@@H]2CC[C@H]1N(C(=O)c1cc(F)c3c(c1)nc(-c1cc4ccccc4n1CC1CC1)n3CC1CN(C(=O)c3ccncc3)C1)C2", "note": "[Example 95, (1R,4R,7R)-2-{2-[1-(cyclopropylmethyl)-1H-indol-2-yl]-7-fluoro-1-{[1-(pyridine-4-carbonyl)azetidin-3-yl]methyl}-1H-1,3-benzodiazole-5-carbonyl}-2-azabicyclo[2.2.1]heptan-7-amine]", "IC50": 16},
      {"compound": "COc1cc(C(=O)N2C[C@H](N)C[C@@H](F)C2)cc2nc(-c3cc4cccnc4n3CC3CC3)n(Cc3cnn(C)c3)c12", "note": "[Example 250, ((3R,5R)-3-amino-5-fluoropiperidin-1-yl)(2-(1-(cyclopropylmethyl)-1H-pyrrolo[2,3-b]pyridin-2-yl)-7-methoxy-1-((1-methyl-1H-pyrazol-4-yl)methyl)-1H-benzo[d]imidazol-5-yl)methanone]", "IC50": 89},
      {"compound": "COc1cc(C(=O)N2C[C@H]3CC[C@@H]2[C@@H]3N)cc2nc(-c3cc4ccccc4n3C)n(CC3CN(c4cncc(C#N)n4)C3)c12", "note": "[Example 41, 6-[3-({5-[(1R,4R,7R)-7-amino-2-azabicyclo[2.2.1]heptane-2-carbonyl]-7-methoxy-2-(1-methyl-1H-indol-2-yl)-1H-1,3-benzodiazol-1-yl}methyl)azetidin-1-yl]pyrazine-2-carbonitrile]", "IC50": 100},
      {"compound": "COc1cc(C(=O)N2CC3CCC2[C@@H]3N)cc2nc(-c3cc4cccnc4n3CC3CC3)n(CC3(C)CN(C(=O)c4ccccc4)C3)c12", "note": "(stereo partly drawn) [Example 444, (7R)-2-{1-[(1-benzoyl-3-methylazetidin-3-yl)methyl]-2-[1-(cyclopropylmethyl)-1H-pyrrolo[2,3-b]pyridin-2-yl]-7-methoxy-1H-1,3-benzodiazole-5-carbonyl}-2-azabicyclo[2.2.1]heptan-7-amine]", "IC50": 43},
      {"compound": "COc1cc(C(=O)N2C[C@H](N)C[C@@H](F)C2)cc2nc(-c3cc4cccnc4n3CC3CC3)n(Cc3ccnn3C)c12", "note": "[Example 518, (3R,5R)-1-{2-[1-(cyclopropylmethyl)-1H-pyrrolo[2,3-b]pyridin-2-yl]-7-methoxy-1-[(1-methyl-1H-pyrazol-5-yl)methyl]-1H-1,3-benzodiazole-5-carbonyl}-5-fluoropiperidin-3-amine]", "IC50": 606},
      {"compound": "COc1cc(C(=O)N2C[C@H]3CC[C@@H]2[C@@H]3N)cc2nc(-c3cc4ccccc4n3CC3CC3)n(CC3CN(C(=O)c4ccccn4)C3)c12", "note": "[Example 167, (1R,4R,7R)-2-{2-[1-(cyclopropylmethyl)-1H-indol-2-yl]-7-methoxy-1-{[1-(pyridine-2-carbonyl)azetidin-3-yl]methyl}-1H-1,3-benzodiazole-5-carbonyl}-2-azabicyclo[2.2.1]heptan-7-amine]", "IC50": 31},
      {"compound": "COc1cc(C(=O)N2C[C@H]3CC[C@@H]2[C@@H]3N)cc2nc(-c3cc4ccccc4n3C)n(CC3CN(c4cncc(C#N)c4)C3)c12", "note": "[Example 22, 5-[3-({5-[(1R,4R,7R)-7-amino-2-azabicyclo[2.2.1]heptane-2-carbonyl]-7-methoxy-2-(1-methyl-1H-indol-2-yl)-1H-1,3-benzodiazol-1-yl}methyl)azetidin-1-yl]pyridine-3-carbonitrile]", "IC50": 60},
      {"compound": "COc1cc(C(=O)N2C[C@H]3CC[C@@H]2[C@@H]3N)cc2nc(-c3cc4cccnc4n3CC3CC3)n(CC3CN(c4ccnc(C)n4)C3)c12", "note": "[Example 16, (1R,4R,7R)-2-{2-[1-(cyclopropylmethyl)-1H-pyrrolo[2,3-b]pyridin-2-yl]-7-methoxy-1-{[1-(2-methylpyrimidin-4-yl)azetidin-3-yl]methyl}-1H-1,3-benzodiazole-5-carbonyl}-2-azabicyclo[2.2.1]heptan-7-amine]", "IC50": 48},
      {"compound": "COc1cc(C(=O)N2C[C@H]3CC[C@@H]2[C@@H]3N)cc2nc(-c3cc4ccccc4n3CC3CC3)n(CC3CN(C(=O)c4cccc(Cl)c4)C3)c12", "note": "[Example 154, (1R,4R,7R)-2-(1-{[1-(3-chlorobenzoyl)azetidin-3-yl]methyl}-2-[1-(cyclopropylmethyl)-1H-indol-2-yl]-7-methoxy-1H-1,3-benzodiazole-5-carbonyl)-2-azabicyclo[2.2.1]heptan-7-amine]", "IC50": 21}
    ]}
  ]
}
